# Measured values as given in patent US7090996B2, “Process for examining membrane enclosed biocompartments” (Micronas GmbH, priority 2000, dated 2006).
# System: biocompartments 1 (biological cells)
# Assay: Micro-flow chamber ISFET measurement of acidification and respiratory activity of biocompartments
# Type: cell-based
# Conditions: for acidification ΔpH−31 activated by the biocompartments / respiratory activity of the biocompartments: agent in culture medium, stand-still phase of pump, compared with agent-free medium (FIG. 5)
# From the text: In a process for the examining of membrane enclosed biocompartments, biocompartments 1 were designed as biological cells placed in a micro-flow chamber 2. […] The space 3 is provided with an inlet opening 4 and an exit opening 5 for nutrient or culture medium. The chamber housing has a chamber base part 6 and a top part 7 which fits said base part 6 and the two parts are sealed liquid tight to one another by an interposed sealing ring 8.
# The inlet opening 4 of the measurement space is connected to the measuring space 3 by a feed conduit 9, which in turn is connected to a culture medium supply 10. A pump 11 is placed in the feed canal 9 for the transport of the culture medium. The pump 11 can be turned on and off by means of a control apparatus (not shown). The exit opening 5 of the micro-flow chamber 2 is joined by means of a connecting line 12, to an exhaust opening 13 for release of the culture medium. In the measuring space 3, the biocompartments 1 stand in contact with the culture medium.
# In the base of the measuring space 3, are placed a plurality of ISFET's 14. […] Between drain 16 and source 17, is a gate 18. Gate 18, drain 16 and source 17 are electrically insulated from the measurement space 3 by means of a silicon nitride layer (not shown). The silicon nitride layer forms on its side remote from the gate 18, an active sensor layer. By means of which layer, the ISFET 14 is controllable through the hydrogen ions present in the culture medium. Gate 18, drain 16 and source 17 of the ISFET are connected with a known evaluation apparatus for the determination of the pH value of the culture medium which is somewhat proportional to measurement signal of the respective ISFET 14.
# As is particularly well presented in FIG. 2, an electrode 19 is placed in close proximity to the gates 18. This electrode 19 is constructed of a noble metal, such as palladium and is in direct contact with the culture medium.
# A reference electrode 20 is paired with the operational electrode 19, which contacts the culture medium at a spatial distance from the ISFET 14. […] The reference electrode 20 and the operational electrodes 19 can be connected to an electrical source of potential for the application of an electric potential on the culture medium.
# By means of the above described measurement arrangement, the respiratory activities of the biocompartments 1 can be indirectly measured. To carry out this purpose, the pump 11, which acts to transport the through-put of the culture medium through the measurement space 3, is temporarily stopped. In FIG. 4, the period of time during which the through-put in the measurement space 3 is stopped, is designated as the time T1 (stopping the pump 11) and T2 (starting the pump 11). This time interval can run, for instance, some 8 minutes.
# Subsequently, by means of the ISFET 14, a first pH−1 is measured for the pH value of the culture medium, preparatory to a first pH measurement pair. […] When this occurs, this potential preferably is set at some −700 to −800 millivolts. In the embodiment of FIG. 3, this potential is applied to the electrodes 19, 20. The surface of the operational electrode 19 exposed to contact with the culture medium is chosen to be as small as possible with potential measuring preferably less than 1000 μm^2, so that, during the application of electrical voltage, the consumption of oxygen at the operational electrode 19 will be held at the lowest possible level. […]
Molecule,viability of the biocompartments (agent in culture medium (FIG. 7)),acidification ΔpH−31 activated by the biocompartments,respiratory activity of the biocompartments
Triton®,dying out,no longer influence the culture medium,no further sign of respiratory activity
O=C(O)CI [iodine acetate],–,recedes,increase
